Data on 3 compounds can be found in patent EP0126344A2, “Tripeptide esters of therapeutic agents” (ABBOTT LABORATORIES, priority 1983, dated 1984).

Data set [1] relates to Staph. aureus, strain 642a. Kind of data set: In vivo activity: survival of infected mice, intraperitoneal administration (Example 27). Conditions: for ED50: Staphylococcus aureus, 642A, ip, 120 h, intraperitoneal injection, mice infected with 100 x LD50 Staph. aureus, read-out: effective dose (ED50); for Mice Surviving: 5 days after infection. How it is done:
(§1) Eight groups of ten female CF-1 mice, each weighing 18-20 g. were supplied with food and water ad lib and injected intraperitoneally with a lethal dose (100 x LD50) of Staph. aureus, strain 642a. At 1 and 5 hours after intraperitoneal infection, the mice were administered by intraperitoneal injection equal doses of either erythromycin A ("A") or 4"-L-leu-gly-L-pro-erythromycin A ("B") dissolved in a phosphate buffered saline solution.

The subject of data set [2] is Staph. aureus, strain 642a. Kind of data set: In vivo activity: survival of infected mice, oral administration (Example 29). As to conditions: after 0.5 ml homogenized milk; for ED50: Staphylococcus aureus, 642A, 120 h, oral administration, mice infected with 100 x LD50 Staph. aureus, read-out: effective dose (ED50); for Mice Surviving: groups of ten mice, five days after infection. How it is done:
as §1
The procedure of Example 25 was repeated except that the erythromycin A and 4"-L-leu-gly-L-pro erythromycin A were administered orally, and that 0.5 ml of homogenized milk was administered orally to each mouse prior to administration of the test compound to minimize acid degredation of the test compound.

For data set [3], the system named is Staph. aureus, strain 642a. Nature of the data set: In vivo activity: survival of infected mice, subcutaneous administration (Example 28). As to conditions: for ED50: Staphylococcus aureus, 642A, sc, 120 h, subcutaneous administration, mice infected with 100 x LD50 Staph. aureus, read-out: effective dose (ED50); for Mice Surviving: groups of ten mice, five days after infection. As to the method:
as §1
The procedure of Example 25 was repeated except that the erythromycin A and 4"-L-leu-gly-L-pro-erythromycin A were administered subcutaneously instead of intraperitoneally.

Data set [4] deals with gastrointestinal tissue. Kind of data set: Gastrointestinal motility in anesthetized dogs, strain gauge transducers (Example 30). Conditions: 1.0 mg./kg. intravenously; strain gauge readings; result in words.
Procedure: Female beagle dogs having a weight of 7.0 to 11.0 kg. were anesthetized with pentobarbital and maintained in surgical anesthesia by supplemental I.V. injections of pentobarbital as needed. The body temperature of each dog was maintained at 36-37° C. The trachea was cannulated and the animal maintained on a respirator at 12 strokes/minute with a volume of 200 ml./stroke. The femoral artery was cannulated for blood pressure recording and both femoral veins were cannulated for intravenous injections and blood collection. Each dog was then prepared for gastrointestinal motility determinations as follows. […]
After an equilibration period of 15 minutes, a dose of 50 pg/.kg. of methacholine was administered intravenously to the dog over a period of thirty seconds and the strain gauge readings were monitored to obtain a standard measurement of reactivity of the gastrointestinal tract.
The strain gauge readings were again monitored to determine effect of the test compound on motility of the gastrointestinal tissue.

A value given as a limit tells only on which side of the number the result lay.

With `CC[C@H]1OC(=O)[C@H](C)[C@@H](O[C@H]2C[C@@](C)(OC)[C@@H](O)[C@H](C)O2)[C@H](C)[C@@H](O[C@@H]2O[C@H](C)C[C@H](N(C)C)[C@H]2O)[C@](C)(O)C[C@@H](C)C(=O)[C@H](C)[C@@H](O)[C@]1(C)O` [A, erythromycin A], the ED50 is < 0.4 mg/kg in data set [1], 110 mg/kg in data set [2] and 2.8 mg/kg in data set [3]. In addition, the “Mice Surviving” value in data set [1] (total dose 0.4 mg/kg intraperitoneal, groups of ten mice) was found to be 9; in data set [1] (total dose 1.9 mg/kg intraperitoneal, groups of ten mice) it was 9; in data set [1] (total dose 7.5 mg/kg intraperitoneal, groups of ten mice) it was 10; in data set [1] (total dose 30 mg/kg intraperitoneal, at 1 and 5 hours after infection, groups of ten female CF-1 mice) it was 10; in data set [2] (total dose 2.3 mg/kg oral), 0; in data set [2] (total dose 9.4 mg/kg oral) it was 0. For the same compound, the “Mice Surviving” value is given as 0 in data set [2] (total dose 37.5 mg/kg oral); 7 in data set [2] (total dose 150 mg/kg oral); 1 in data set [3] (total dose 0.4 mg/kg subcutaneous); 1 in data set [3] (total dose 1.9 mg/kg subcutaneous); 10 in data set [3] (total dose 7.5 mg/kg subcutaneous); 10 in data set [3] (total dose 30 mg/kg subcutaneous).
Regarding `CC[C@H]1OC(=O)[C@H](C)[C@@H](O[C@H]2C[C@@](C)(OC)[C@@H](OC(=O)[C@@H]3CCCN3C(=O)CNC(=O)[C@@H](N)CC(C)C)[C@H](C)O2)[C@H](C)[C@@H](O[C@@H]2O[C@H](C)C[C@H](N(C)C)[C@H]2O)[C@](C)(O)C[C@@H](C)C(=O)[C@H](C)[C@@H](O)[C@]1(C)O` [B, 4"-L-leu-gly-L-pro-erythromycin A], the ED50 in data set [1] stood at 0.6 mg/kg; in data set [2] it was 181 mg/kg; in data set [3] it was 3.1 mg/kg. Further, the “Mice Surviving” value in data set [1] (total dose 0.6 mg/kg intraperitoneal, groups of ten mice) worked out at 5; in data set [1] (total dose 2.6 mg/kg intraperitoneal, groups of ten mice) it was 10; in data set [1] (total dose 10.5 mg/kg intraperitoneal, groups of ten mice) it was 10; in data set [1] (total dose 41.1 mg/kg intraperitoneal, groups of ten mice), 10; in data set [2] (total dose 3.2 mg/kg oral), 0; in data set [2] (total dose 12.8 mg/kg oral) it was 0. The “Mice Surviving” value came out at 0 in data set [2] (total dose 51.3 mg/kg oral); 6 in data set [2] (total dose 205 mg/kg oral); 2 in data set [3] (total dose 0.6 mg/kg subcutaneous); 5 in data set [3] (total dose 2.6 mg/kg subcutaneous); 6 in data set [3] (total dose 10.5 mg/kg subcutaneous); 10 in data set [3] (total dose 41.1 mg/kg subcutaneous).
Consider `CC[C@H]1OC(=O)[C@H](C)[C@@H](O[C@H]2C[C@@](C)(OC)[C@@H](O)[C@H](C)O2)[C@H](C)[C@@H](O[C@@H]2O[C@H](C)C[C@H](N(C)C)[C@H]2O)[C@](C)(O)C[C@@H](C)C(=O)[C@H](C)[C@@H](O)[C@]1(C)O` [Erythromycin Lactobionate, erythromycin A lactobionate], for which, in data set [4], the “effect of the test compound on motility of the gastrointestinal tissue” value is “pronounced stimulation of the stomach, duodenum, jejunum and ileum, with no apparent effect on the colon”.
